# Reference: patent US20240368122A1, “JAK2 INHIBITORS AND METHODS OF USE THEREOF” (RELAY THERAPEUTICS, INC., priority 2021, published 2024)
# Columns and labels:
# [1] = molecular target: T1, JAK2 JH1 WT (T842-G1132) (Homo sapiens, UniProt O60674); assay: Surface Plasmon Resonance (SPR) binding assay, JAK2 JH1 domain; conditions: SPR, JAK2 JH1 domain
# T1 construct: *JAK2 JH1 WT (T842-G1132) N-His60-avi-TEV; His6 (N); TEV cleavage site (N); purchased Biortus
# Description: Selected compounds of the present disclosure were tested in a Surface Plasmon Resonance (SPR) Assay to measure their binding kinetics and affinity for proteins of interest.
# Prepare buffer: 50 mM HEPES pH 7.5, 150 mM NaCl, 0.05% (v/v) Tween, and 10% (v/v) glycerol were combined and pH was adjusted to 7.5, then filtered. 5 mM DTT, was added, and buffer without DMSO was reserved for compound resuspension. 2% (v/v) DMSO was added for assay buffer, and separately 1% DMSO was used to make buffer for resuspending compounds.
# Prepare compounds: Using a Bravo liquid handler, 99 μL of 1% (v/v) DMSO assay buffer was added to 1 μL compounds in DMSO.
# Run 8K Method: Biotin CAPture (CAP) chip surface was regenerated prior to run by: Inserting CAP chip into Biacore 8K, prime machine with assay buffer with 2% (v/v) DMSO; Setting instrument temperature to 20° C.; Conditioning surface with NaOH/GdnHCl reagents from CAP chip kit (60 seconds, 10 μL/min); and Capturing oligo-Streptavidin (SA) reagent from CAP kit (600 seconds, 1 μL/min), expected capture ˜2500 RU. JAK2 JH1 or JH2 protein was immobilized by preparing a sample of 0.5 uM JH1 or 0.4 uM JH2 protein diluted in assay buffer without DMSO and supplemented with 10 uM of a selected compound of the invention as a stabilizer (370 seconds, 5 uL/min), expected capture ˜1000 RU. Remaining biotin sites on SA were blocked with 1 uM biotin (30 seconds, 20 uL/min), then equilibrated for 1800 seconds at 100 uL/min. Compounds being assayed were run in single cycle kinetics: 4 doses with a top concentration of 5 uM (JH1) or 500 nM (JH2), dilution factor of 3, at 20° C., for a contact time of 60 seconds, and a dissociation time of 300 seconds (JH1) or 1200 seconds (JH2), at a flow rate of 30 uL/min. The surface was completely regenerated after each compound is run, and JH1 or JH2 protein was immobilized fresh prior to each new compound. Data were fitted kinetically with 1:1 binding model using Biacore Insight Evaluation Software.
# [2] = test system: TF1 JAK2 V617F STAT3 reporter; assay: Cellular TF1 STAT3 assay (luciferase reporter), JAK2 V617F; format: cell-based; conditions: TF1 JAK2 V617F, read-out: Cell PD-TF1 JAK2 V617F STAT3 (IC50)
# Method in brief: (§1)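 Measured in TF1 cells with mutant JAK2 V617F and STAT-responsive luciferase: 18-20 h compound exposure at 37 °C, then ONE-glo luminescence.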
# [3] = molecular target: T2, JAK2 JH2 WT (V536-D812) [W659A, W777A, F794H solubilizing mutations] (Homo sapiens, UniProt O60674, F794H/W659A/W777A); assay: Surface Plasmon Resonance (SPR) binding assay, JAK2 JH2 domain; conditions: SPR, JAK2 JH2 domain
# T2 construct: **JAK2 JH2 WT (V536-D812) [W659A, W777A, F794H solubilizing mutations]; C-thrombin-avi-His6; thrombin cleavage site (C); His6 (C); purchased Biortus
# T2 sequence (O60674 536-812 W659A/W777A/F794H): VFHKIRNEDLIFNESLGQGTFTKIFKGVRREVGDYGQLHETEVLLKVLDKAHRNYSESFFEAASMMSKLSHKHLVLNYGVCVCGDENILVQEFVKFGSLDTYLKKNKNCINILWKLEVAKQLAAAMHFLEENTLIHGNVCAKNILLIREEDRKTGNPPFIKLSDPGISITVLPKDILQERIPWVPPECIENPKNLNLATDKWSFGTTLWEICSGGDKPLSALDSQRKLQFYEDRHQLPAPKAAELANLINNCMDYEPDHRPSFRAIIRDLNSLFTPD
# Method in brief: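 Kinetics came from 1:1 fits of single-cycle runs at 20 °C: four 3-fold dilutions from 5 uM for JH1 or 500 nM for JH2, 60 s association, and 300 s or 1200 s dissociation respectively. Protein was freshly captured per compound in the presence of 10 uM stabilizer compound, with running buffer of pH 7.5 HEPES/NaCl/glycerol/DTT plus 2% DMSO.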
# [4] = test system: TF1 JAK2 V617F STAT5 reporter; assay: Cellular TF1 STAT5 assay (luciferase reporter), JAK2 V617F; format: cell-based; conditions: TF1 JAK2 V617F, read-out: Cell PD TF1 V617F STAT5 (IC50)
# Method in brief: as §1
# T1 sequence (O60674 842-1132): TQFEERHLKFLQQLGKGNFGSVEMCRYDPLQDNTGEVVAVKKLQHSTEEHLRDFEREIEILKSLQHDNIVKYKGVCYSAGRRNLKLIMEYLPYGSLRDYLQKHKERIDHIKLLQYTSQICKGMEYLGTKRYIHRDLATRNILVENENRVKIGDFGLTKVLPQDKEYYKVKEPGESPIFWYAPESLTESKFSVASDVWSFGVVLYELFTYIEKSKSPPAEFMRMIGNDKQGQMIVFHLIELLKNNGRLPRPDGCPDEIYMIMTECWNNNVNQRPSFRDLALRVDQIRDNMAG
Kd [1] [nM],IC50 [2] [nM],Kd [3] [nM],IC50 [4] [nM],SMILES
5000 to 100000,50 to 500,0.01 to 10,50 to 500,CNC(=O)c1nnc(NC(=O)C2CC2)cc1Nc1cccc(-c2ccc(C(=O)N(C)Cc3cc(C(F)F)ccn3)nc2)c1OC [Compound 158]
500 to 5000,50 to 500,0.01 to 10,50 to 500,CNC(=O)c1nnc(NC(=O)C2CC2)cc1Nc1cccc(-c2cnn(C3CN(Cc4ccccn4)C3)c2)c1OC [Compound 39]
5000 to 100000,500 to 5000,0.01 to 10,5000 to 100000,CNC(=O)c1nnc(NC(=O)C2CC2)cc1Nc1cccc(-c2ccc(C(=O)NCc3cccn(C)c3=O)nn2)c1OC [Compound 8]
5000 to 100000,50 to 500,0.01 to 10,500 to 5000,CNC(=O)c1nnc(NC(=O)C2CC2)cc1Nc1cccc(-c2ccc(C(=O)N(C)Cc3cc(C#N)ccn3)nn2)c1OC [Compound 35]
5000 to 100000,50 to 500,0.01 to 10,50 to 500,CNC(=O)c1nnc(NC(=O)C2CC2)cc1Nc1cccc(-c2cnn(C3CN(Cc4cccc(Cl)n4)C3)c2)c1OC [Compound 143]
500 to 5000,50 to 500,0.01 to 10,50 to 500,CNC(=O)c1nnc(NC(=O)C2CC2)cc1Nc1cccc(-c2cnn(C3CN(Cc4cccc(F)n4)C3)c2)c1OC [Compound 142]
5000 to 100000,50 to 500,0.01 to 10,50 to 500,CNC(=O)c1nnc(NC(=O)C2CC2)cc1Nc1cccc(-c2ccc(C(=O)N(C)Cc3cccnc3)nc2)c1OC [Compound 30]
5000 to 100000,500 to 5000,0.01 to 10,500 to 5000,CNC(=O)c1nnc(NC(=O)C2CC2)cc1Nc1cccc(-c2ccc(C(=O)N(C)Cc3nnc(C)s3)nc2)c1OC [Compound 149]
5000 to 100000,50 to 500,0.01 to 10,50 to 500,CNC(=O)c1nnc(NC(=O)C2CC2)cc1Nc1cccc(-c2ccc(C(=O)N(C)Cc3ccn(C)n3)nc2)c1OC [Compound 26]
5000 to 100000,50 to 500,0.01 to 10,500 to 5000,CNC(=O)c1nnc(NC(=O)C2CC2)cc1Nc1cccc(-c2ccc(C(=O)N(C)Cc3cccnc3C#N)nc2)c1OC [Compound 136]
5000 to 100000,50 to 500,0.01 to 10,50 to 500,CNC(=O)c1nnc(NC(=O)C2CC2)cc1Nc1cccc(-c2cnc(C(=O)N(C)Cc3cc(C#N)ccn3)cn2)c1OC [Compound 37]
5000 to 100000,50 to 500,0.01 to 10,500 to 5000,CNC(=O)c1nnc(NC(=O)C2CC2)cc1Nc1cccc(-c2cnn(C3CN(Cc4cc(C#N)ccn4)C3)c2)c1OC [Compound 66]
5000 to 100000,50 to 500,0.01 to 10,50 to 500,CNC(=O)c1nnc(NC(=O)C2CC2)cc1Nc1cccc(-c2ccc(C(=O)N(C)Cc3cnn(C)c3)nc2)c1OC [Compound 17]
5000 to 100000,50 to 500,0.01 to 10,50 to 500,CNC(=O)c1nnc(NC(=O)C2CC2)cc1Nc1ccc(C)c(-c2ccc(C(=O)N(C)Cc3ccn(C)n3)nc2)c1OC [Compound 34]
500 to 5000,50 to 500,0.01 to 10,50 to 500,CNC(=O)c1nnc(NC(=O)C2CC2)cc1Nc1cccc(-c2cnn(C3CN(Cc4ccn(C)n4)C3)c2)c1OC [Compound 41]
500 to 5000,500 to 5000,0.01 to 10,5000 to 100000,CNC(=O)c1nnc(NC(=O)C2CC2)cc1Nc1cccc(-c2cnn(C3CN(Cc4ccnc(C)n4)C3)c2)c1OC [Compound 148]
5000 to 100000,500 to 5000,0.01 to 10,500 to 5000,CNC(=O)c1nnc(NC(=O)C2CC2)cc1Nc1cccc(-c2cnc(C(=O)N(C)Cc3ccn(C)n3)c(C#N)c2)c1OC [Compound 92]
5000 to 100000,500 to 5000,0.01 to 10,500 to 5000,CNC(=O)c1nnc(NC(=O)C2CC2)cc1Nc1cccc(-c2ccc(C(=O)N(C)Cc3cc(C#N)ccn3)cc2)c1OC [Compound 11]
5000 to 100000,500 to 5000,0.01 to 10,500 to 5000,CNC(=O)c1nnc(NC(=O)C2CC2)cc1Nc1cccc(-c2ccc(C(=O)NCc3cccn(C)c3=O)nc2)c1OC [Compound 4]
5000 to 100000,500 to 5000,0.01 to 10,500 to 5000,"CNC(=O)c1nnc(NC(=O)C2CC2)cc1Nc1cccc(-c2ccc(C(=O)N(C)Cc3cccn(C)c3=O)cc2)c1OC [Compound 3, 6-(cyclopropanecarboxamido)-4-((2-methoxy-4′-(methyl((1-methyl-2-oxo-1,2-dihydropyridin-3-yl)methyl)carbamoyl)-[1,1′-biphenyl]-3-yl)amino)-N-methylpyridazine-3-carboxamide]"
5000 to 100000,5000 to 100000,10 to 50,5000 to 100000,CNC(=O)c1nnc(NC(=O)C2CC2)cc1Nc1cccc(-c2nnc(C3CN(Cc4ccccn4)C3)o2)c1OC [Compound 156]
5000 to 100000,500 to 5000,0.01 to 10,500 to 5000,CNC(=O)c1nnc(NC(=O)C2CC2)cc1Nc1ccc(C)c(-c2cnn(C3CN(Cc4cc(C#N)ccn4)C3)c2)c1OC [Compound 68]
5000 to 100000,5000 to 100000,0.01 to 10,5000 to 100000,CNC(=O)c1nnc(NC(=O)C2CC2)cc1Nc1cccc(-c2nnc(C3CN(Cc4cccc(C)n4)C3)o2)c1OC [Compound 157]
5000 to 100000,50 to 500,0.01 to 10,50 to 500,CNC(=O)c1nnc(NC(=O)C2CC2)cc1Nc1cccc(-c2ccc(C(=O)N(C)Cc3cc(C#N)ccn3)nc2)c1OC [Compound 18]
5000 to 100000,10 to 50,0.01 to 10,10 to 50,CNC(=O)c1nnc(NC(=O)C2CC2)cc1Nc1ccc(C)c(-c2ccc(C(=O)N(C)Cc3cc(C#N)ccn3)nc2)c1OC [Compound 33]
500 to 5000,500 to 5000,0.01 to 10,500 to 5000,CNC(=O)c1nnc(NC(=O)C2CC2)cc1Nc1cccc(-c2ccc(C(=O)NCc3cccn(C)c3=O)cc2)c1OC [Compound 1]
